From patent US6048892A, “Ester compound pesticide containing thereof” (Sumitomo Chemical Company, Limited, priority 1999, dated 2000)

Legend:
Assay type in all cases: in vivo
[1] = system: common mosquitoes (Culex pipiens pallens); experiment: Biological Test 11: mosquitoes in cup over treated aluminum plate without direct contact, mortality; conditions: 24 h
Procedure: After 0.64 ml of a 0.05 (w/v) % acetone solution of the present compounds was dropped into an aluminum plate (bottom diameter: 7 cm), acetone was air-dried. Ten female common mosquitoes (Culex pipiens pallens) were left in a polyethylene cup (diameter: 9 cm; depth: 4.5 cm) and the cup was sealed with a 16-mesh nylon net to prevent direct contact of the mosquitoes with the compound. The cup was placed upside down on the aluminum plate at 25° C. for 120 minutes. The cup was then removed from the aluminum plate, and water and feed were given to the mosquitoes. After 24 hours, the mortality was examined (two replicate).

[2] = system: common mosquitoes (Culex pipiens pallens); experiment: Biological Test 6: mortality of last-instar mosquito larvae in water; conditions: 24 h, read-out: mortality of the common mosquitoes
Procedure: 0.7 ml of aqueous emulsion, obtained by diluting emulsifiable concentrate prepared for each of the present compounds according to the formulation example 1, was added to 100 ml of ion-exchanged water (concentration of active ingredient: 3.5 ppm). Twenty last-instar larvae of common mosquitoes (Culex pipiens pallens) were left in the water. After one day, the mortality of the common mosquitoes was examined.

[3] = system: common mosquitoes (Culex pipiens pallens); experiment: Biological Test 7: knock-down of mosquitoes by sprayed oil solution; conditions: 0.7 ml of 0.1% oil solution sprayed in 0.34 m^3 chamber; after 15 minutes
Procedure: Ten female common mosquitoes (Culex pipiens pallens) were left in a glass chamber (70 cm×70 cm×70 cm: 0.34 m^3). 0.7 ml of 0.1% oil solution prepared for each of the present compounds according to the formulation example 7 was sprayed with a spray gun at 0.8 atmospheric pressure. After 15 minutes, the rate of knocked-down mosquitoes was examined.

[4] = system: German cockroaches (Blattela germanica); experiment: Biological Test 15: repellency, treated sheet shelter; conditions: 1.0 ml of 0.1% by weight acetone solution on filter paper; 24 hours
Procedure: The obtained sheet was folded as to be a triangular tube where one side of the triangle-shaped base was 3 cm.
In a plastic cup (650 ml volume), said triangular tube was placed as a shelter (cockroach hiding residence). Ten adult German cockroaches (Blattela germanica) were placed in said plastic cup together with food and water and then observed the number of cockroaches in the shelter 24 hours later (two replicate). Repellency (%) was calculated by the following formula: [formula]

`Cc1ccc(COC(=O)[C@@H]2[C@H](/C=C(\Cl)C(F)(F)F)C2(C)C)o1` (relative stereo) [Compound (1), 5-methyl-2-furfuryl (1RS,cis)-3-(Z-2-chloro-3,3,3-trifluoroprop-1-enyl)-2,2-dimethylcyclopropanecarboxylate] was tested, and the mortality at 500 µg/mL [1] was 100%, the mortality at 3.5 ppm [2] was ≥ 90% and the “rate of knocked-down mosquitoes” value [3] was ≥ 90%. The “Repellency (%)” value [4] was 100%.
